± gives the expanded uncertainty stated by the source.
Assay: xn = mol fraction of the nth substance listed
Conditions: 101 kPa, Liquid; for viscosity: Concentric cylinders viscometry; for speed of sound: Pulse-echo method; for mass density: Vibrating tube method

CCCCCCCO [heptan-1-ol] + C1COCCO1
Conditions	mass density, 313.15 K [kg/m3]	mass density, 318.15 K [kg/m3]	mass density, 323.15 K [kg/m3]	speed of sound, 313.15 K [m/s]	speed of sound, 318.15 K [m/s]	speed of sound, 323.15 K [m/s]	viscosity, 313.15 K [mPa·s]	viscosity, 318.15 K [mPa·s]	viscosity, 323.15 K [mPa·s]
x1 = 0.0505	992.162 ± 0.27	986.663 ± 0.27	981.158 ± 0.27	1275.6 ± 1.2	1254.7 ± 1.2	1233.5 ± 1.2	0.957 ± 0.033	0.888 ± 0.031	0.827 ± 0.029
x1 = 0.1	975.379 ± 0.26	970.046 ± 0.26	964.707 ± 0.26	1270.9 ± 1.2	1250.5 ± 1.2	1230.6 ± 1.2	0.976 ± 0.034	0.905 ± 0.032	0.842 ± 0.03
x1 = 0.1501	960.33 ± 0.26	955.144 ± 0.26	949.953 ± 0.26	1267.6 ± 1.2	1247.5 ± 1.2	1228.1 ± 1.2	1.009 ± 0.035	0.934 ± 0.033	0.867 ± 0.03
x1 = 0.2	946.025 ± 0.26	940.982 ± 0.26	935.93 ± 0.26	1264.9 ± 1.2	1245.2 ± 1.2	1226.2 ± 1.2	1.041 ± 0.036	0.964 ± 0.034	0.893 ± 0.031
x1 = 0.25	932.425 ± 0.25	927.545 ± 0.25	922.628 ± 0.25	1262.8 ± 1.2	1243.5 ± 1.2	1224.8 ± 1.2	1.088 ± 0.038	1.003 ± 0.035	0.928 ± 0.032
x1 = 0.2997	920.079 ± 0.25	915.295 ± 0.25	910.503 ± 0.25	1261.3 ± 1.2	1242.4 ± 1.2	1224 ± 1.2	1.143 ± 0.04	1.052 ± 0.037	0.971 ± 0.034
x1 = 0.3502	908.677 ± 0.25	904.009 ± 0.25	899.329 ± 0.25	1260.6 ± 1.2	1242 ± 1.2	1223.9 ± 1.2	1.209 ± 0.042	1.109 ± 0.039	1.021 ± 0.036
x1 = 0.4001	898.054 ± 0.24	893.497 ± 0.24	888.925 ± 0.24	1260 ± 1.2	1241.6 ± 1.2	1223.7 ± 1.2	1.278 ± 0.045	1.168 ± 0.041	1.073 ± 0.037
x1 = 0.4498	888.028 ± 0.24	883.572 ± 0.24	879.103 ± 0.24	1259.9 ± 1.2	1241.7 ± 1.2	1224.1 ± 1.2	1.361 ± 0.047	1.241 ± 0.043	1.136 ± 0.04
x1 = 0.4998	878.663 ± 0.24	874.304 ± 0.24	869.929 ± 0.24	1260.3 ± 1.2	1242.3 ± 1.2	1224.9 ± 1.2	1.463 ± 0.051	1.33 ± 0.046	1.213 ± 0.042
x1 = 0.55	870.001 ± 0.24	865.728 ± 0.24	861.446 ± 0.24	1260.7 ± 1.2	1243 ± 1.2	1225.7 ± 1.2	1.568 ± 0.054	1.419 ± 0.049	1.29 ± 0.045
x1 = 0.6004	861.838 ± 0.24	857.642 ± 0.24	853.441 ± 0.24	1262.1 ± 1.2	1244.1 ± 1.2	1227 ± 1.2	1.691 ± 0.059	1.526 ± 0.053	1.383 ± 0.048
x1 = 0.6501	854.006 ± 0.24	849.902 ± 0.24	845.785 ± 0.24	1262.9 ± 1.2	1245.5 ± 1.2	1228.6 ± 1.2	1.83 ± 0.064	1.645 ± 0.057	1.486 ± 0.052
x1 = 0.7002	846.648 ± 0.24	842.622 ± 0.24	838.579 ± 0.24	1264.3 ± 1.2	1247 ± 1.2	1230.3 ± 1.2	1.991 ± 0.069	1.783 ± 0.062	1.604 ± 0.056
x1 = 0.7493	839.512 ± 0.24	835.561 ± 0.24	831.593 ± 0.24	1266 ± 1.2	1248.9 ± 1.2	1232.4 ± 1.2	2.165 ± 0.075	1.93 ± 0.067	1.73 ± 0.06
x1 = 0.7999	832.79 ± 0.24	828.821 ± 0.24	824.83 ± 0.24	1267.4 ± 1.2	1250.6 ± 1.2	1234.3 ± 1.2	2.38 ± 0.082	2.114 ± 0.073	1.883 ± 0.065
x1 = 0.85	826.48 ± 0.24	822.668 ± 0.24	818.738 ± 0.24	1270.6 ± 1.2	1253.3 ± 1.2	1236.9 ± 1.2	2.62 ± 0.091	2.313 ± 0.08	2.053 ± 0.071
x1 = 0.8998	820.289 ± 0.24	816.551 ± 0.24	812.671 ± 0.24	1272.2 ± 1.2	1255.8 ± 1.2	1239.1 ± 1.2	2.913 ± 0.1	2.557 ± 0.089	2.258 ± 0.078
x1 = 0.9498	814.421 ± 0.24	810.743 ± 0.24	807.031 ± 0.24	1274.6 ± 1.2	1258.4 ± 1.2	1241.8 ± 1.2	3.25 ± 0.11	2.835 ± 0.098	2.489 ± 0.086
x1 = 1	809.011 ± 0.23	805.383 ± 0.24	801.731 ± 0.24	1277.7 ± 1.2	1261.1 ± 1.2	1245.1 ± 1.2	3.677 ± 0.13	3.186 ± 0.11	2.777 ± 0.096
